The test system of one series is Escherichia coli. Description: Antimicrobial activity against Escherichia coli ATCC 25922 by tube dilution method. In kind it is functional.
Another series deals with Staphylococcus aureus. Description: Antimicrobial activity against methicillin-resistant Staphylococcus aureus ATCC 33591 by tube dilution method. The format is functional.
The next series concerns Candida albicans. Description: Antifungal activity against Candida albicans ATCC 200955 by tube dilution method. In kind it is functional.
Series [1] in a line: Toxicity in human erythrocytes assessed as hemolysis at 150 uM after 1 hr. The format is cell-based, Erythrocyte. The note with it: read-out: Activity.
Series [2] in a line: Toxicity in human erythrocytes assessed as hemolysis after 1 hr. In kind it is cell-based, Erythrocyte.
Another series relates to Enterococcus faecium. Description: Antimicrobial activity against vancomycin-resistant Enterococcus faecium ATCC 700221 by tube dilution method. The format is functional.
The next series relates to Klebsiella pneumoniae. Description: Antimicrobial activity against multidrug-resistant Klebsiella pneumoniae ATCC 700603 by tube dilution method. The format is functional.
The subject of a further series is Pseudomonas aeruginosa. Description: Antimicrobial activity against Pseudomonas aeruginosa ATCC 27853 by tube dilution method. In kind it is functional.
The next series has as its system Acinetobacter baumannii. Description: Antimicrobial activity against multidrug-resistant Acinetobacter baumannii ATCC BAA-1605 by tube dilution method. In kind it is functional.

≈ marks a conversion by molar mass, not a printed value. Numbered stars: 1 amine (or outer) side, 2 acyl side, 3 side chain; on linkers, the order of the positions; unused ones are H or OH. Bridge positions count the residues as written; N and C are the ends. Square brackets hold non-standard residues; d marks the D form. Peptide text beside a SMILES is read from it. ξ: configuration not given here. NH(CH2)9CO = O=C(CCCCCCCCCN[*:1])[*:2]; 2Nal = N[C@@H](Cc1ccc2ccccc2c1)C(=O)O; X1 = NC(CCN[*:2])C(=O)[*:1]; Aoc = NCCCCCCCC(=O)O; ξDab = NCCC(N)C(=O)O; GABA = NCCCC(=O)O Bounds are passed on as bounds.

In the case of `CC(C)C[C@@H]1NC(=O)CNC(=O)[C@H](Cc2ccc(O)cc2)NC(=O)[C@H](CCCNC(=N)N)NC(=O)[C@H](CC(C)C)NC(=O)[C@H](Cc2ccc3ccccc3c2)NC(=O)[C@H](CCCNC(=N)N)NC1=O` (cyclo([2Nal]LRYGLR)), the MIC (commonly the lowest concentration found to suppress growth) against Escherichia coli was greater than 128 µM; against Staphylococcus aureus it was 128 µM (≈ 122 µg/mL); in the series on Candida albicans, greater than 128 µM; against Enterococcus faecium, 64 µM (≈ 61.2 µg/mL); against Klebsiella pneumoniae, greater than 128 µM; in the series with Pseudomonas aeruginosa, greater than 128 µM. For the same compound, the MIC with Acinetobacter baumannii is greater than 128 µM. Moreover, the hemolysis at 1 h, 150 µM in [1] is 19%. In addition, the EC50 – broadly, the concentration needed to bring the measured effect to its halfway point – at 1 hr in series [2] is greater than 150 µM.

For `CC(C)C[C@@H]1NC(=O)C(N)CCNC(=O)C(N)CCNC(=O)[C@H](Cc2ccc3ccccc3c2)NC(=O)[C@H](CCCNC(=N)N)NC(=O)[C@H](CC(C)C)NC(=O)[C@H](Cc2ccc3ccccc3c2)NC(=O)[C@H](CCCNC(=N)N)NC1=O` (stereo partly drawn) (H-[ξDab]LR[2Nal]LR[2Nal]; linker 1-C via X1), the MIC was 32 µM (≈ 36.3 µg/mL) with Escherichia coli; 16 µM (≈ 18.1 µg/mL) in the series on Staphylococcus aureus; 16 µM (≈ 18.1 µg/mL) against Candida albicans; 8 µM (≈ 9.07 µg/mL) with Enterococcus faecium; 128 µM (≈ 145 µg/mL) against Klebsiella pneumoniae; 32 µM (≈ 36.3 µg/mL) in the series on Pseudomonas aeruginosa. Also, the MIC in the series with Acinetobacter baumannii stood at 128 µM (≈ 145 µg/mL). Moreover, the hemolysis at 1 h, 150 µM in [1] was less than 8%. Also, in series [2], the EC50 at 1 hr was greater than 450 µM.

As for `CC(C)C[C@@H]1NC(=O)CNC(=O)[C@H](Cc2c[nH]c3ccccc23)NC(=O)[C@H](CCCCN)NC(=O)[C@H](CC(C)C)NC(=O)[C@H](Cc2c[nH]c3ccccc23)NC(=O)[C@H](CCCCN)NC1=O` (cyclo(GLKWLKW)), the MIC is 128 µM (≈ 117 µg/mL) in the series with Escherichia coli; greater than 128 µM with Staphylococcus aureus; greater than 128 µM against Candida albicans; 128 µM (≈ 117 µg/mL) against Enterococcus faecium; greater than 128 µM in the series with Klebsiella pneumoniae; greater than 128 µM in the series on Pseudomonas aeruginosa. In addition, in the series on Acinetobacter baumannii, the MIC is 128 µM (≈ 117 µg/mL). In series [1], the hemolysis at 1 h, 150 µM was less than 8%. The EC50 at 1 hr in series [2] is greater than 150 µM.

As for `CC(C)C[C@@H]1NC(=O)CCCCCCCCCNC(=O)[C@H](Cc2ccc3ccccc3c2)NC(=O)[C@H](CCCNC(=N)N)NC(=O)[C@H](CC(C)C)NC(=O)[C@H](Cc2ccc3ccccc3c2)NC(=O)[C@H](CCCNC(=N)N)NC1=O` (cyclo([2Nal]LR[2Nal][NH(CH2)9CO]LR)), the MIC in the series on Escherichia coli was 64 µM (≈ 70.6 µg/mL); in the series with Staphylococcus aureus, 4 µM (≈ 4.41 µg/mL); against Candida albicans, 16 µM (≈ 17.6 µg/mL); with Enterococcus faecium it was 4 µM (≈ 4.41 µg/mL); in the series with Klebsiella pneumoniae, greater than 64 µM; against Pseudomonas aeruginosa, greater than 64 µM. The compound also yielded an MIC in the series on Acinetobacter baumannii of 16 µM (≈ 17.6 µg/mL). Moreover, the hemolysis at 1 h, 150 µM in series [1] stood at 100%. In [2], the EC50 at 1 hr is 15 µM.

`CC(C)C[C@@H]1NC(=O)CNC(=O)[C@H](Cc2ccc3ccccc3c2)NC(=O)[C@H](CCCCN)NC(=O)[C@H](CC(C)C)NC(=O)[C@H](Cc2ccc3ccccc3c2)NC(=O)[C@H](CCCCN)NC1=O` (cyclo([2Nal]GLK[2Nal]LK)): the MIC in the series with Escherichia coli is 128 µM (≈ 120 µg/mL); against Staphylococcus aureus, 32 µM (≈ 29.9 µg/mL); in the series on Candida albicans, 64 µM (≈ 59.8 µg/mL); with Enterococcus faecium, 16 µM (≈ 14.9 µg/mL); with Klebsiella pneumoniae, greater than 128 µM; in the series on Pseudomonas aeruginosa, 128 µM (≈ 120 µg/mL). This compound also gave an MIC with Acinetobacter baumannii greater than 128 µM. Besides, in [1], the hemolysis at 1 h, 150 µM was found to be 13%. Moreover, in [2], the EC50 at 1 hr was greater than 150 µM.

With `CC(C)C[C@@H]1NC(=O)CCCNC(=O)C(N)CCNC(=O)[C@H](Cc2ccc3ccccc3c2)NC(=O)[C@H](CCCNC(=N)N)NC(=O)[C@H](CC(C)C)NC(=O)[C@H](Cc2ccc3ccccc3c2)NC(=O)[C@H](CCCNC(=N)N)NC1=O` (stereo partly drawn) (H-[ξDab][GABA]LR[2Nal]LR[2Nal]; lactam 1-C), the MIC against Escherichia coli amounted to 32 µM (≈ 35.8 µg/mL); in the series on Staphylococcus aureus, 16 µM (≈ 17.9 µg/mL); against Candida albicans, 16 µM (≈ 17.9 µg/mL); in the series with Enterococcus faecium it was 8 µM (≈ 8.95 µg/mL); with Klebsiella pneumoniae, 32 µM (≈ 35.8 µg/mL); with Pseudomonas aeruginosa, 64 µM (≈ 71.6 µg/mL). In the series with Acinetobacter baumannii, this compound returned an MIC of 32 µM (≈ 35.8 µg/mL). The hemolysis at 1 h, 150 µM in series [1] was 12%. Also, in [2], the EC50 at 1 hr was found to be 255 µM.

In the case of `CC(C)C[C@@H]1NC(=O)CCCNC(=O)[C@H](Cc2ccc3ccccc3c2)NC(=O)[C@H](CCCNC(=N)N)NC(=O)[C@H](CC(C)C)NC(=O)[C@H](Cc2ccc3ccccc3c2)NC(=O)[C@H](CCCNC(=N)N)NC1=O` (cyclo([2Nal][GABA]LR[2Nal]LR)), the MIC stood at 64 µM (≈ 65.2 µg/mL) against Escherichia coli; 16 µM (≈ 16.3 µg/mL) against Staphylococcus aureus; 16 µM (≈ 16.3 µg/mL) in the series on Candida albicans; 8 µM (≈ 8.15 µg/mL) in the series with Enterococcus faecium; 128 µM (≈ 130 µg/mL) with Klebsiella pneumoniae; 128 µM (≈ 130 µg/mL) with Pseudomonas aeruginosa. Also, the MIC in the series with Acinetobacter baumannii was 128 µM (≈ 130 µg/mL). The hemolysis at 1 h, 150 µM in series [1] was determined as 22%. The EC50 at 1 hr in [2] was determined as 230 µM.

As to `CC(C)C[C@@H]1NC(=O)CCCCCCCNC(=O)[C@H](Cc2ccc3ccccc3c2)NC(=O)[C@H](CCCNC(=N)N)NC(=O)[C@H](CC(C)C)NC(=O)[C@H](Cc2ccc3ccccc3c2)NC(=O)[C@H](CCCNC(=N)N)NC1=O` (cyclo([2Nal][Aoc]LR[2Nal]LR)), the MIC with Escherichia coli amounted to 16 µM (≈ 17.2 µg/mL); in the series on Staphylococcus aureus, 2 µM (≈ 2.15 µg/mL); against Candida albicans it was 4 µM (≈ 4.3 µg/mL); in the series on Enterococcus faecium it was 2 µM (≈ 2.15 µg/mL); in the series on Klebsiella pneumoniae it was 16 µM (≈ 17.2 µg/mL); against Pseudomonas aeruginosa, 32 µM (≈ 34.4 µg/mL). The minimal inhibitory concentration (MIC) in the series with Acinetobacter baumannii came out at 8 µM (≈ 8.6 µg/mL). Further, in [1], the hemolysis at 1 h, 150 µM is 100%. Moreover, the EC50 at 1 hr in series [2] was 22 µM.

In the case of `CC(C)C[C@@H]1NC(=O)CNC(=O)[C@@H](Cc2ccc3ccccc3c2)NC(=O)[C@H](CCCNC(=N)N)NC(=O)[C@H](CC(C)C)NC(=O)[C@H](Cc2ccc3ccccc3c2)NC(=O)[C@H](CCCNC(=N)N)NC1=O`, the MIC against Escherichia coli was 128 µM (≈ 127 µg/mL); in the series on Staphylococcus aureus, 32 µM (≈ 31.7 µg/mL); against Candida albicans, 64 µM (≈ 63.4 µg/mL); with Enterococcus faecium it was 16 µM (≈ 15.8 µg/mL); against Klebsiella pneumoniae it was greater than 128 µM; with Pseudomonas aeruginosa it was greater than 128 µM. The compound further returned an MIC in the series with Acinetobacter baumannii of 128 µM (≈ 127 µg/mL). Also, the hemolysis at 1 h, 150 µM in [1] is less than 8%. In series [2], the EC50 at 1 hr was greater than 150 µM.

As for `CC(C)C[C@@H]1NC(=O)C(N)CCNC(=O)CCCNC(=O)[C@H](Cc2ccc3ccccc3c2)NC(=O)[C@H](CCCNC(=N)N)NC(=O)[C@H](CC(C)C)NC(=O)[C@H](Cc2ccc3ccccc3c2)NC(=O)[C@H](CCCNC(=N)N)NC1=O` (stereo partly drawn) (H-[ξDab]LR[2Nal]LR[2Nal][GABA]; lactam 1-C), the MIC in the series on Escherichia coli turned out to be 32 µM (≈ 35.8 µg/mL); against Staphylococcus aureus it was 8 µM (≈ 8.95 µg/mL); against Candida albicans, 32 µM (≈ 35.8 µg/mL); against Enterococcus faecium, 8 µM (≈ 8.95 µg/mL); in the series with Klebsiella pneumoniae it was 64 µM (≈ 71.6 µg/mL); against Pseudomonas aeruginosa it was 64 µM (≈ 71.6 µg/mL). For the same compound, in the series on Acinetobacter baumannii, the MIC stood at 64 µM (≈ 71.6 µg/mL). Besides, the hemolysis at 1 h, 150 µM in [1] was less than 8%. In addition, the EC50 at 1 hr in series [2] amounted to 420 µM.

Regarding `CC(C)C[C@@H]1NC(=O)C(N)CCNC(=O)[C@H](Cc2ccc3ccccc3c2)NC(=O)[C@H](CCCNC(=N)N)NC(=O)[C@H](CC(C)C)NC(=O)[C@H](Cc2ccc3ccccc3c2)NC(=O)[C@H](CCCNC(=N)N)NC1=O` (stereo partly drawn) (H-[ξDab]LR[2Nal]LR[2Nal]; lactam 1-C), the MIC with Escherichia coli stood at 64 µM (≈ 66.1 µg/mL); in the series on Staphylococcus aureus it was 32 µM (≈ 33.1 µg/mL); in the series on Candida albicans, 16 µM (≈ 16.5 µg/mL); in the series with Enterococcus faecium it was 8 µM (≈ 8.27 µg/mL); with Klebsiella pneumoniae, 64 µM (≈ 66.1 µg/mL); in the series on Pseudomonas aeruginosa, 128 µM (≈ 132 µg/mL). The compound further displayed an MIC against Acinetobacter baumannii greater than 128 µM. The hemolysis at 1 h, 150 µM in series [1] is less than 8%. The 50% effective concentration (EC50) at 1 hr in series [2] came to 265 µM.

On to `CC(C)C[C@@H]1NC(=O)CNC(=O)[C@H](Cc2ccccc2)NC(=O)[C@H](CCCCN)NC(=O)[C@H](CC(C)C)NC(=O)[C@H](Cc2ccccc2)NC(=O)[C@H](CCCCN)NC1=O` (cyclo(FGLKFLK)), for which the MIC is 128 µM (≈ 107 µg/mL) against Escherichia coli; greater than 128 µM with Staphylococcus aureus; greater than 128 µM in the series with Candida albicans; 128 µM (≈ 107 µg/mL) with Enterococcus faecium; greater than 128 µM with Klebsiella pneumoniae; greater than 128 µM against Pseudomonas aeruginosa. 128 µM (≈ 107 µg/mL) was the least that counted as inhibitory in the series with Acinetobacter baumannii (MIC). Also, in series [1], the hemolysis at 1 h, 150 µM is less than 8%. The EC50 at 1 hr in [2] is greater than 150 µM.

These data come from ChEMBL document CHEMBL4000149, “The effect of glycine replacement with flexible ω-amino acids on the antimicrobial and haemolytic activity of an amphipathic cyclic heptapeptide” (Eur J Med Chem, 2015).
